Results: patent EP4600243A2, “NOVEL BICYCLIC HETEROCYCLYL COMPOUNDS AND USE THEREOF” (Jeil Pharmaceutical Co., Ltd., priority 2022, dated 2024)

What follows are compounds tested against T1, protein-protein interaction between SOS1 and KRAS G12C (Homo sapiens, UniProt Q07889) (assay: KRAS::SOS1 HTRF binding analysis (KRAS G12C/SOS1 binding kit)). Conditions: compound at 0.1 uM.
T1 construct: purchased Cisbio 64KRASG12PEG
T1 sequence (Q07889 1-1333): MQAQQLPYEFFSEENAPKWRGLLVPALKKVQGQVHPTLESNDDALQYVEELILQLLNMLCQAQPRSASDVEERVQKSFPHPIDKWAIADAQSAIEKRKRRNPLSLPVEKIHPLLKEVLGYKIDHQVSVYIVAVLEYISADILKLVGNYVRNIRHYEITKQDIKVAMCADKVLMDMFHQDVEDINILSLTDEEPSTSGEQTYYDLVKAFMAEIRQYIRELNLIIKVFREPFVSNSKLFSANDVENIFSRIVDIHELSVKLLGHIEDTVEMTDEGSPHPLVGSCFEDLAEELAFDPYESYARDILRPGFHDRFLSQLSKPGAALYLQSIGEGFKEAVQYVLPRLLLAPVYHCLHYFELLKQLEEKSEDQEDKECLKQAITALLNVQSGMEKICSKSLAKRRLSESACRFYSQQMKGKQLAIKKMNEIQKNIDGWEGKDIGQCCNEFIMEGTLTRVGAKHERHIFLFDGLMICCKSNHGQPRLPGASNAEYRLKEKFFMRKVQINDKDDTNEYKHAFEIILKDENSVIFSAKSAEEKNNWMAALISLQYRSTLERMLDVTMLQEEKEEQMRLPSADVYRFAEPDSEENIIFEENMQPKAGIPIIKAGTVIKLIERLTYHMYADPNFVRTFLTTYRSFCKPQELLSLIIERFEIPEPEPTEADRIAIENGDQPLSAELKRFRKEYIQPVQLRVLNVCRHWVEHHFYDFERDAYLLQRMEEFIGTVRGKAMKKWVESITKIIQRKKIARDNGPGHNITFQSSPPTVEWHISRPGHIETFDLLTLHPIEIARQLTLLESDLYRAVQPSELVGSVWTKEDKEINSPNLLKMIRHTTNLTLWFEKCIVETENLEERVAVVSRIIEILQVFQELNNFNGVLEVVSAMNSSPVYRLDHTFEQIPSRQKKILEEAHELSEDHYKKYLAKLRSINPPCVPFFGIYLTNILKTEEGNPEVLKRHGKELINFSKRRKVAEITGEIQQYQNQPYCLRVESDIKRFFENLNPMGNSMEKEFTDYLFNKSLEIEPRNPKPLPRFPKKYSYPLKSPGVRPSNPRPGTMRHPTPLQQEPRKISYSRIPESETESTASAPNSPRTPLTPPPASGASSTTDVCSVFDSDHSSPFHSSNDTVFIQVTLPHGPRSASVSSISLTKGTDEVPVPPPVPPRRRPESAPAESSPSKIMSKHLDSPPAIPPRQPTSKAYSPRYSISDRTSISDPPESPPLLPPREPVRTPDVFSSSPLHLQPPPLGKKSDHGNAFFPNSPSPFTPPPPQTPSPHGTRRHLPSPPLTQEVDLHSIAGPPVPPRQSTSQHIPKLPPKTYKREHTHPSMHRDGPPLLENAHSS
Procedure: 1-1. KRAS::SOS1 HTRF binding analysis
An SOS1 inhibitory ability of the example compounds of the present invention was confirmed by identifying the effect of inhibiting a protein-protein interaction between SOS1 and KRAS G12C of the compounds according to examples of the present invention.
Specifically, a KRAS G12C/SOS1 binding kit (64KRASG12PEG, Cisbio, France) was purchased and used. 2 µℓ of Tag1-KRAS G12C and 2 µℓ of GTP were premixed and dispensed 4 µl each into a 384 well plate (6007290, PerkinElmer, USA). 2 µℓ of the compound and 4 µℓ of Tag2-SOS1 were placed and then 10 µℓ of premixed Anti-Tag1 XL665 antibody and Anti-Tag2 Tb cryptate antibody was dispensed to each well. The plates were sealed and allowed to react at room temperature for one hour and 40 minutes, and then 665 nm wavelength and 620 nm wavelength were measured using a HTRF® compatible reader (Synergy H4, BioTeK, USA), and the ratio of receptor and donor emission signals for each well was calculated as 665 nm/620 nm×10^4.
(+++: more than 70 to 100% inhibition, ++: more than 40 to 70% inhibition, +: 0 to 40% inhibition) [Table 4]
`C[C@@H](Nc1cnnc2ccc(C3=CCNCC3)cc12)c1cccc(C(F)F)c1F` [Example 2, (R)-N-(1-(3-(difluoromethyl)-2-fluorophenyl)ethyl)-6-(1,2,3,6-tetrahydropyridin-4-yl)cinnolin-4-amine] gave an inhibition at 0.1 µM of 40 to 70%. `C[C@@H](Nc1cnnc2ccc(N3CCN(C)CC3)cc12)c1cccc(C(F)F)c1F` [Example 5, (R)-N-(1-(3-(difluoromethyl)-2-fluorophenyl)ethyl)-6-(4-methylpiperazin-1-yl)cinnolin-4-amine] was tested, and the inhibition at 0.1 µM was 40 to 70%. `C[C@@H](Nc1cnnc2ccc(N3CC4CC(C3)O4)cc12)c1cc(O)cc(C(F)F)c1` [Example 55, 3-((1R)-1-((6-(6-oxa-3-azabicyclo[3.1.1]heptan-3-yl)cinnolin-4-yl)amino)ethyl)-5-(difluoromethyl)phenol] was tested, and the inhibition at 0.1 µM was 0 to 40%. Compound `C[C@@H](Nc1cnnc2ccc(N3CC4CC(C3)O4)cc12)c1cccc(F)c1F` [Example 56, 6-(6-oxa-3-azabicyclo[3.1.1]heptan-3-yl)-N-((R)-1-(2,3-difluorophenyl)ethyl)cinnolin-4-amine] has an inhibition at 0.1 µM of 0 to 40%. In the case of `C[C@@H]1CN(c2ccc3nncc(N[C@H](C)c4cccc(C(F)F)c4F)c3c2)CCO1` [Example 57, N-((R)-1-(3-(difluoromethyl)-2-fluorophenyl)ethyl)-6-((R)-2-methylmorpholino)cinnolin-4-amine], the inhibition at 0.1 µM is reported as 0 to 40%. Work on `C[C@H]1CN(c2ccc3nncc(N[C@H](C)c4cccc(C(F)F)c4F)c3c2)CCO1` [Example 59, N-((R)-1-(3-(difluoromethyl)-2-fluorophenyl)ethyl)-6-((S)-2-methylmorpholino)cinnolin-4-amine] yielded an inhibition at 0.1 µM of 0 to 40%. Work on `C[C@@H](Nc1cnnc2ccc(C3=CCN(C(=O)C4COC4)CC3)cc12)c1cccc(C(F)F)c1F` [Example 60, (R)-(4-(4-(1-(3-(difluoromethyl)-2-fluorophenyl)ethylamino)cinnolin-6-yl)-5,6-dihydropyridin-1(2H)-yl)(oxetan-3-yl)methanone] yielded an inhibition at 0.1 µM of 70 to 100%. Compound `C[C@@H](Nc1cnnc2ccc(C3=CCN(C(=O)C4CC4)CC3)cc12)c1cccc(C(F)F)c1F` [Example 61, (R)-cyclopropyl(4-(4-(1-(3-(difluoromethyl)-2-fluorophenyl)ethylamino)cinnolin-6-yl)-5,6-dihydropyridin-1(2H)-yl)methanone] has an inhibition at 0.1 µM of 0 to 40%. Work on `C[C@@H](Nc1cnnc2ccc(N3CCN(C(=O)C4CC4)CC3)cc12)c1cccc(C(F)F)c1F` [Example 62, (R)-cyclopropyl(4-(4-(1-(3-(difluoromethyl)-2-fluorophenyl)ethylamino)cinnolin-6-yl)piperazin-1-yl)methanone] yielded an inhibition at 0.1 µM of 40 to 70%. In the case of `C[C@@H](Nc1cnnc2ccc(N3CCN(C(=O)C4CCOCC4)CC3)cc12)c1cccc(C(F)F)c1F` [Example 63, (R)-(4-(4-(1-(3-(difluoromethyl)-2-fluorophenyl)ethylamino)cinnolin-6-yl)piperazin-1-yl)(tetrahydro-2H-pyran-4-yl)methanone], the inhibition at 0.1 µM is reported as 40 to 70%. In the case of `C[C@@H](Nc1cnnc2ccc(N3CCN(C(=O)[C@@H]4CCOC4)CC3)cc12)c1cccc(C(F)F)c1F` [Example 64, (4-(4-((R)-1-(3-(difluoromethyl)-2-fluorophenyl)ethylamino)cinnolin-6-yl)piperazin-1-yl)((R)-tetrahydrofuran-3-yl)methanone], the inhibition at 0.1 µM is reported as 70 to 100%. Work on `C[C@@H](Nc1cnnc2ccc(N3CCN(C(=O)[C@H]4CCOC4)CC3)cc12)c1cccc(C(F)F)c1F` [Example 65, (4-(4-((R)-1-(3-(difluoromethyl)-2-fluorophenyl)ethylamino)cinnolin-6-yl)piperazin-1-yl)((S)-tetrahydrofuran-3-yl)methanone] yielded an inhibition at 0.1 µM of 40 to 70%. With `C[C@@H](Nc1cnnc2ccc(N3CCC(NC(=O)C4COC4)CC3)cc12)c1cccc(C(F)F)c1F` [Example 69, (R)-N-(1-(4-(1-(3-(difluoromethyl)-2-fluorophenyl)ethylamino)cinnolin-6-yl)piperidin-4-yl)oxetan-3-carboxamide] the inhibition at 0.1 µM was 40 to 70%.

These compounds were tested against T2, EGFR kinase (Homo sapiens, UniProt P00533) (assay: EGFR kinase inhibitory analysis (ADP-Glo enzyme analysis system)). Conditions: ADP-Glo luminescence.
T2 construct: purchased Promega Corporation V3831
T2 sequence (P00533 25-1210): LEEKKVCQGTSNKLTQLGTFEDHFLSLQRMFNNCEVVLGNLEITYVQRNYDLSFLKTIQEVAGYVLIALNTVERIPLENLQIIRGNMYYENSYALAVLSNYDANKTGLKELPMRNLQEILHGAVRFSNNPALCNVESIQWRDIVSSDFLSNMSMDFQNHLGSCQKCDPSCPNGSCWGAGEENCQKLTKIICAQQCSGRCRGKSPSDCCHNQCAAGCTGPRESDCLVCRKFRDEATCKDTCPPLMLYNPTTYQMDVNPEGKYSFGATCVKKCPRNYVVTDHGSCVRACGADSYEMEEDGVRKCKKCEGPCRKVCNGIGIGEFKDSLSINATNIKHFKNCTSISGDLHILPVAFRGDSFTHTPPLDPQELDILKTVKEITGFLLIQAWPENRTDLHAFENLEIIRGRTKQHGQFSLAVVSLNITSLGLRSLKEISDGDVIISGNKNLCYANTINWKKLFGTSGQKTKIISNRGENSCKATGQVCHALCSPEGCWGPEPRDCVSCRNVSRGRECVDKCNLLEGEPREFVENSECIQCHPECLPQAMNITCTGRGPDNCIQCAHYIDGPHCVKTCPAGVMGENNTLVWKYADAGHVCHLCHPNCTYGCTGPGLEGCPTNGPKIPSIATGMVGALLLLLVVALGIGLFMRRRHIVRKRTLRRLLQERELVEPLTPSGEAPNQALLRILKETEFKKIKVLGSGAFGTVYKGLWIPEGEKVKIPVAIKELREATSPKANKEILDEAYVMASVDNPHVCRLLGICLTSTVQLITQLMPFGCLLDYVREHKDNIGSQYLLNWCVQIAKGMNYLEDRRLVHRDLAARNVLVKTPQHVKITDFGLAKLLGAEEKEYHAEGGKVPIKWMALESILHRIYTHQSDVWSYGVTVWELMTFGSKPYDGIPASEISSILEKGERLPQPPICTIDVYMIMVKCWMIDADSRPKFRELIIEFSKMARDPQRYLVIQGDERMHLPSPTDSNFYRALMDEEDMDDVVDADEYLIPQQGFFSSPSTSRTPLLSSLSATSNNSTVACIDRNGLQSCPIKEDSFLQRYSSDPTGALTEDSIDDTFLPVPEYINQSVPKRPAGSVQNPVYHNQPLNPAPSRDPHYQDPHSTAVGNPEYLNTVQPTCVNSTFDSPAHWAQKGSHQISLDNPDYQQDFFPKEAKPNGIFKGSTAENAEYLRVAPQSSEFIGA
Assay type: biochemical
Procedure: 1-2. EGFR kinase inhibitory analysis
Specifically, an ADP-Glo™ enzyme analysis system (V3831, Promega Corporation, USA) was purchased and used. […] The ADP-Glo™ reagent was added in an amount of 5 µℓ per well and allowed to react at room temperature for 40 minutes to stop the EGFR kinase reaction and to remove unused ATP. 10 µℓ of kinase detection reagent (phosphorylase detection reagent) was added and reacted at room temperature for 30 minutes to convert ADP to ATP and show ATP using luciferase and luciferin. Detection was performed using luminescence of an ELISA reader (Synergy H4, BioTek, USA).
In the case of `C[C@@H](Nc1cnnc2ccc(C3=CCNCC3)cc12)c1cccc(C(F)F)c1F` [Example 2, (R)-N-(1-(3-(difluoromethyl)-2-fluorophenyl)ethyl)-6-(1,2,3,6-tetrahydropyridin-4-yl)cinnolin-4-amine], the IC50 is reported as > 10 µM. For `C[C@@H](Nc1cnnc2ccc(N3CCN(C)CC3)cc12)c1cccc(C(F)F)c1F` [Example 5, (R)-N-(1-(3-(difluoromethyl)-2-fluorophenyl)ethyl)-6-(4-methylpiperazin-1-yl)cinnolin-4-amine], the IC50 was > 10 µM.
